System: not listed separately
Test: Cytotoxicity against human HPAEpic cells assessed as reduction in cell viability after 24 hrs by MTT assay
Assay type: cell-based
Conditions: HPAEpic cells

Row | Compound | CC50 at 24 h [µM]
1 | O=c1[nH]cc(S(=O)(=O)Nc2ccccc2-c2cn(-c3cccc(Cl)c3)nn2)c(=O)[nH]1 | > 100
2 | O=c1[nH]cc(S(=O)(=O)Nc2cccc(-c3cn(-c4ccccc4Cl)nn3)c2)c(=O)[nH]1 | 12.3
3 | O=c1[nH]cc(S(=O)(=O)Nc2ccccc2-c2cn(-c3ccccc3F)nn2)c(=O)[nH]1 | > 100
4 | Cc1ccccc1-n1cc(-c2cccc(NS(=O)(=O)c3c[nH]c(=O)[nH]c3=O)c2)nn1 | 10.2
5 | Cc1cccc(-n2cc(-c3cccc(NS(=O)(=O)c4c[nH]c(=O)[nH]c4=O)c3)nn2)c1 | 23.7
6 | O=c1[nH]cc(S(=O)(=O)Nc2ccccc2-c2cn(-c3ccccc3Cl)nn2)c(=O)[nH]1 | 17.7
7 | Cc1ccc(-n2cc(-c3ccccc3NS(=O)(=O)c3c[nH]c(=O)[nH]c3=O)nn2)cc1 | 7.03

System: not listed separately
Test: Cytotoxicity against human IOSE-80 cells assessed as reduction in cell viability after 24 hrs by MTT assay
Assay type: cell-based
Conditions: IOSE-80 cells

Row | Compound | CC50 at 24 h [µM]
8 | O=c1[nH]cc(S(=O)(=O)Nc2ccccc2-c2cn(-c3cccc(Cl)c3)nn2)c(=O)[nH]1 | > 100
9 | O=c1[nH]cc(S(=O)(=O)Nc2cccc(-c3cn(-c4ccccc4Cl)nn3)c2)c(=O)[nH]1 | 17.9
10 | O=c1[nH]cc(S(=O)(=O)Nc2ccccc2-c2cn(-c3ccccc3F)nn2)c(=O)[nH]1 | > 100
11 | Cc1ccccc1-n1cc(-c2cccc(NS(=O)(=O)c3c[nH]c(=O)[nH]c3=O)c2)nn1 | 36.4
12 | Cc1cccc(-n2cc(-c3cccc(NS(=O)(=O)c4c[nH]c(=O)[nH]c4=O)c3)nn2)c1 | 23.4
13 | O=c1[nH]cc(S(=O)(=O)Nc2ccccc2-c2cn(-c3ccccc3Cl)nn2)c(=O)[nH]1 | 11.2
14 | Cc1ccc(-n2cc(-c3ccccc3NS(=O)(=O)c3c[nH]c(=O)[nH]c3=O)nn2)cc1 | 33.4

System: not listed separately
Test: Cytotoxicity against human GES-1 cells assessed as reduction in cell viability after 24 hrs by MTT assay
Assay type: cell-based, GES1
Conditions: GES-1 cells

Row | Compound | CC50 at 24 h [µM]
15 | O=c1[nH]cc(S(=O)(=O)Nc2ccccc2-c2cn(-c3cccc(Cl)c3)nn2)c(=O)[nH]1 | > 100
16 | O=c1[nH]cc(S(=O)(=O)Nc2cccc(-c3cn(-c4ccccc4Cl)nn3)c2)c(=O)[nH]1 | 14
17 | O=c1[nH]cc(S(=O)(=O)Nc2ccccc2-c2cn(-c3ccccc3F)nn2)c(=O)[nH]1 | > 100
18 | Cc1ccccc1-n1cc(-c2cccc(NS(=O)(=O)c3c[nH]c(=O)[nH]c3=O)c2)nn1 | 21.5
19 | Cc1cccc(-n2cc(-c3cccc(NS(=O)(=O)c4c[nH]c(=O)[nH]c4=O)c3)nn2)c1 | 18.5
20 | O=c1[nH]cc(S(=O)(=O)Nc2ccccc2-c2cn(-c3ccccc3Cl)nn2)c(=O)[nH]1 | 20.8
21 | Cc1ccc(-n2cc(-c3ccccc3NS(=O)(=O)c3c[nH]c(=O)[nH]c3=O)nn2)cc1 | 32.4

System: not listed separately
Test: Cytotoxicity against human L02 cells assessed as reduction in cell viability after 24 hrs by MTT assay
Assay type: cell-based
Conditions: L02 cells

Row | Compound | CC50 at 24 h [µM]
22 | O=c1[nH]cc(S(=O)(=O)Nc2ccccc2-c2cn(-c3cccc(Cl)c3)nn2)c(=O)[nH]1 | > 100
23 | O=c1[nH]cc(S(=O)(=O)Nc2cccc(-c3cn(-c4ccccc4Cl)nn3)c2)c(=O)[nH]1 | 11.5
24 | O=c1[nH]cc(S(=O)(=O)Nc2ccccc2-c2cn(-c3ccccc3F)nn2)c(=O)[nH]1 | > 100
25 | Cc1ccccc1-n1cc(-c2cccc(NS(=O)(=O)c3c[nH]c(=O)[nH]c3=O)c2)nn1 | 15.3
26 | Cc1cccc(-n2cc(-c3cccc(NS(=O)(=O)c4c[nH]c(=O)[nH]c4=O)c3)nn2)c1 | 28.3
27 | O=c1[nH]cc(S(=O)(=O)Nc2ccccc2-c2cn(-c3ccccc3Cl)nn2)c(=O)[nH]1 | 22.8
28 | Cc1ccc(-n2cc(-c3ccccc3NS(=O)(=O)c3c[nH]c(=O)[nH]c3=O)nn2)cc1 | > 100

System: A549
Test: cells
Conditions: Homo sapiens, A549, 24 h
Description: Antiproliferative activity against human A549 cells assessed as reduction in cell viability after 24 hrs by MTT assay

Row | IC50 [µM] | Compound
29 | 2.34 | O=c1[nH]cc(S(=O)(=O)Nc2ccccc2-c2cn(-c3cccc(Cl)c3)nn2)c(=O)[nH]1
30 | 2.73 | O=c1[nH]cc(S(=O)(=O)Nc2cccc(-c3cn(-c4ccccc4Cl)nn3)c2)c(=O)[nH]1
31 | 7.37 | O=c1[nH]cc(S(=O)(=O)Nc2ccccc2-c2cn(-c3ccccc3F)nn2)c(=O)[nH]1
32 | 5.47 | Cc1ccccc1-n1cc(-c2cccc(NS(=O)(=O)c3c[nH]c(=O)[nH]c3=O)c2)nn1
33 | 3.55 | Cc1cccc(-n2cc(-c3cccc(NS(=O)(=O)c4c[nH]c(=O)[nH]c4=O)c3)nn2)c1
34 | 2.74 | O=c1[nH]cc(S(=O)(=O)Nc2ccccc2-c2cn(-c3ccccc3Cl)nn2)c(=O)[nH]1
35 | 2.91 | Cc1ccc(-n2cc(-c3ccccc3NS(=O)(=O)c3c[nH]c(=O)[nH]c3=O)nn2)cc1

System: OVCAR-3
Test: cells
Conditions: Homo sapiens, OVCAR-3, 24 h
Description: Antiproliferative activity against human OVCAR3 cells assessed as reduction in cell viability after 24 hrs by MTT assay

Row | IC50 [µM] | Compound
36 | 2.18 | O=c1[nH]cc(S(=O)(=O)Nc2ccccc2-c2cn(-c3cccc(Cl)c3)nn2)c(=O)[nH]1
37 | 5.37 | O=c1[nH]cc(S(=O)(=O)Nc2cccc(-c3cn(-c4ccccc4Cl)nn3)c2)c(=O)[nH]1
38 | 15.3 | O=c1[nH]cc(S(=O)(=O)Nc2ccccc2-c2cn(-c3ccccc3F)nn2)c(=O)[nH]1
39 | 6.23 | Cc1ccccc1-n1cc(-c2cccc(NS(=O)(=O)c3c[nH]c(=O)[nH]c3=O)c2)nn1
40 | 4.08 | Cc1cccc(-n2cc(-c3cccc(NS(=O)(=O)c4c[nH]c(=O)[nH]c4=O)c3)nn2)c1
41 | 3.17 | O=c1[nH]cc(S(=O)(=O)Nc2ccccc2-c2cn(-c3ccccc3Cl)nn2)c(=O)[nH]1
42 | 2.19 | Cc1ccc(-n2cc(-c3ccccc3NS(=O)(=O)c3c[nH]c(=O)[nH]c3=O)nn2)cc1

System: SGC-7901
Test: cells
Conditions: Homo sapiens, SGC-7901, 24 h
Description: Antiproliferative activity against human SGC7901 cells assessed as reduction in cell viability after 24 hrs by MTT assay

Row | IC50 [µM] | Compound
43 | 2.27 | O=c1[nH]cc(S(=O)(=O)Nc2ccccc2-c2cn(-c3cccc(Cl)c3)nn2)c(=O)[nH]1
44 | 3.01 | O=c1[nH]cc(S(=O)(=O)Nc2cccc(-c3cn(-c4ccccc4Cl)nn3)c2)c(=O)[nH]1
45 | 10.8 | O=c1[nH]cc(S(=O)(=O)Nc2ccccc2-c2cn(-c3ccccc3F)nn2)c(=O)[nH]1
46 | 9.23 | Cc1ccccc1-n1cc(-c2cccc(NS(=O)(=O)c3c[nH]c(=O)[nH]c3=O)c2)nn1
47 | 9.1 | Cc1cccc(-n2cc(-c3cccc(NS(=O)(=O)c4c[nH]c(=O)[nH]c4=O)c3)nn2)c1
48 | 6.52 | O=c1[nH]cc(S(=O)(=O)Nc2ccccc2-c2cn(-c3ccccc3Cl)nn2)c(=O)[nH]1
49 | 6.39 | Cc1ccc(-n2cc(-c3ccccc3NS(=O)(=O)c3c[nH]c(=O)[nH]c3=O)nn2)cc1

System: HepG2
Test: cells
Conditions: Homo sapiens, HepG2, 24 h
Description: Antiproliferative activity against human HepG2 cells assessed as reduction in cell viability after 24 hrs by MTT assay

Row | IC50 [µM] | Compound
50 | 2.46 | O=c1[nH]cc(S(=O)(=O)Nc2ccccc2-c2cn(-c3cccc(Cl)c3)nn2)c(=O)[nH]1
51 | 4.03 | O=c1[nH]cc(S(=O)(=O)Nc2cccc(-c3cn(-c4ccccc4Cl)nn3)c2)c(=O)[nH]1
52 | 12.5 | O=c1[nH]cc(S(=O)(=O)Nc2ccccc2-c2cn(-c3ccccc3F)nn2)c(=O)[nH]1
53 | 9.57 | Cc1ccccc1-n1cc(-c2cccc(NS(=O)(=O)c3c[nH]c(=O)[nH]c3=O)c2)nn1
54 | 7.05 | Cc1cccc(-n2cc(-c3cccc(NS(=O)(=O)c4c[nH]c(=O)[nH]c4=O)c3)nn2)c1
55 | 2.24 | O=c1[nH]cc(S(=O)(=O)Nc2ccccc2-c2cn(-c3ccccc3Cl)nn2)c(=O)[nH]1
56 | 8.35 | Cc1ccc(-n2cc(-c3ccccc3NS(=O)(=O)c3c[nH]c(=O)[nH]c3=O)nn2)cc1
